# Experimental data reported in patent publication US4143041A, “4'-Deoxyvincristine and related compounds” (Eli Lilly and Company, priority 1977, dated 1979).
# Structures can show the parent of a compound that is named as a salt.
# Assays:
# [1] = test system: GLS (Gardner lymphosarcoma); assay: transplanted Gardner lymphosarcoma (GLS) in mice; type: in vivo
# Description: (§1) The compounds of this invention, as represented by Formula II above, particularly those in which R^1 is acetoxy, are powerful anti-tumor agents.
# (§2) The following table -- Table 1 -- gives the results of several experiments in which transplanted tumors in mice were treated successfully with a compound of this invention.
# (§3) In the table, column 1 gives the name of the compound; column 2, the transplanted tumor; column 3, the dose level or dose level range and the number of days the dosage was administered; column 4, the route of administration, and column 5, the percent inhibition of tumor growth or percent prolongation of survival time, e.g., B16. (ROS is an abbreviation of Ridgeway osteogenic sarcoma; GLS for Gardner lymphosarcoma; P1534(J) and L1210 are leukemias; CA755 is an adenocarcinoma; and B16 is a melanoma.).
# L1210 leukemia = assay: transplanted L1210 leukemia in mice; type: in vivo; conditions: IP
# Description: as §1, §2, §3
# [2] = test system: ROS (Ridgeway osteogenic sarcoma); assay: transplanted Ridgeway osteogenic sarcoma (ROS) in mice; type: in vivo; conditions: IP
# Description: as §1, §2, §3
# B16 melanoma = assay: transplanted B16 melanoma in mice (survival); type: in vivo; conditions: IP
# Description: as §1, §2, §3
# **Delayed treatment-dosed 5th, 9th and 13th days
# [3] = test system: 755 (CA755 adenocarcinoma); assay: transplanted CA755 adenocarcinoma in mice; type: in vivo; conditions: IP
# Description: as §1, §2, §3
# P1534(J) leukemia = assay: transplanted P1534(J) leukemia in mice; type: in vivo; conditions: IP
# Description: as §1, §2, §3
# pKa' in 66% DMF = type: physicochemical
# transplanted tumors = assay: anti-tumor / oncolytic activity against transplanted tumors in mice; type: in vivo
# Source text: as §1
# [4] = test system: experimental malignancies; conditions: cited from earlier work
# experimental tumors = conditions: cited from earlier work
# [5] = cited from earlier work
compound,measurement,setting,value
CC[C@H]1C[C@@H]2CN(CCc3c([nH]c4ccccc34)[C@@](C(=O)OC)(c3cc4c(cc3OC)N(C=O)[C@H]3[C@@](O)(C(=O)OC)[C@H](OC(C)=O)[C@]5(CC)C=CCN6CC[C@]43[C@@H]65)C2)C1 [4'-Deoxy-1-formylleurosidine sulfate],Percent Inhibition or Prolongation of Survival Time,"[1]; 0.18 mg./kg. × 3 days, IP",100%
same,Percent Inhibition or Prolongation of Survival Time (Toxic),"[1]; 0.25 mg./kg. × 3 days, IP",Toxic
same,Percent Inhibition or Prolongation of Survival Time,"[1]; 0.4 mg./kg. × 3 days, IP",100%
same,Percent Inhibition or Prolongation of Survival Time (Toxic),"[1]; 0.6 mg./kg. × 3 days, IP",Toxic
same,Percent Inhibition or Prolongation of Survival Time,"L1210 leukemia; 0.25 mg./kg. × 3 days, *1 or more indefinite survivors",65%
same,Percent Inhibition or Prolongation of Survival Time (Toxic),L1210 leukemia; 0.4-0.6 mg./kg. × 3 days,Toxic
same,Percent Inhibition or Prolongation of Survival Time,[2]; 0.18 mg./kg. × 3 days,93%
same,Percent Inhibition or Prolongation of Survival Time (Toxic),[2]; 0.25 mg./kg. × 3 days,Toxic
same,Percent Inhibition or Prolongation of Survival Time,[2]; 0.4 mg./kg. × 3 days,100%
CC[C@H]1C[C@@H]2CN(CCc3c([nH]c4ccccc34)[C@@](C(=O)OC)(c3cc4c(cc3OC)N(C=O)[C@H]3[C@@](O)(C(=O)OC)[C@H](O)[C@]5(CC)C=CCN6CC[C@]43[C@@H]65)C2)C1 [4'-Deoxy-4-desacetyl 1-desmethyl-1-formyl-leurosidine sulfate],Percent Inhibition or Prolongation of Survival Time,"B16 melanoma; 0.15-0.6 mg./kg. × 3 days, **delayed treatment, dosed 5th, 9th and 13th days",31 -62%
same,Percent Inhibition or Prolongation of Survival Time,"[1]; 0.18 mg./kg. × 3 days, route not given",95%
same,Percent Inhibition or Prolongation of Survival Time (Toxic),"[1]; 0.6 mg./kg. × 3 days, route not given",Toxic
same,Percent Inhibition or Prolongation of Survival Time,"[1]; 0.25-0.40 mg./kg. × 3 days, route not given",94-100%
"CC[C@@H]1C[C@@H]2CN(CCc3c([nH]c4ccccc34)[C@@](C(=O)OC)(c3cc4c(cc3OC)N(C=O)[C@H]3[C@@](O)(C(=O)OC)[C@H](OC(C)=O)[C@]5(CC)C=CCN6CC[C@]43[C@@H]65)C2)C1 [4'-Deoxyvincristine sulfate, 4'-deoxyvincristine sulfate]",Percent Inhibition or Prolongation of Survival Time,"B16 melanoma; 0.30-0.9 mg./kg. × 3 days, *1 or more indefinite survivors",36-143%
same,Percent Inhibition or Prolongation of Survival Time (Toxic),[3]; 0.9 mg./kg. × 3 days,Toxic
same,Percent Inhibition or Prolongation of Survival Time,[3]; 0.06-0.13 mg./kg. × 9-10 days,15-100%
same,Percent Inhibition or Prolongation of Survival Time,[3]; 0.1-0.3 mg./kg. × 3 days,36-100%
same,Percent Inhibition or Prolongation of Survival Time (Toxic),[3]; 0.25-1.8 mg./kg. × 9-10 days,Toxic
same,Percent Inhibition or Prolongation of Survival Time,"[1]; 0.18-0.25 mg./kg. × 3 days, IP",62-94%
same,Percent Inhibition or Prolongation of Survival Time (Toxic),"[1]; 0.4-0.6 mg./kg. × 3 days, IP",Toxic
CC[C@H]1C[C@@H]2CN(CCc3c([nH]c4ccccc34)[C@@](C(=O)OC)(c3cc4c(cc3OC)N(C=O)[C@H]3[C@@](O)(C(=O)OC)[C@H](OC(C)=O)[C@]5(CC)C=CCN6CC[C@]43[C@@H]65)C2)C1 [4'-deoxy-1-formylleurosidine],Percent Inhibition or Prolongation of Survival Time (Toxic),B16 melanoma; 0.9 mg./kg. × 3 days,Toxic
same,Percent Inhibition or Prolongation of Survival Time,B16 melanoma; 0.25-0.6 mg./kg. × 3 days,98-146%
same,Percent Inhibition or Prolongation of Survival Time,[3]; 0.25 mg./kg. × 3 days,47%
same,Percent Inhibition or Prolongation of Survival Time,[3]; 0.4 mg./kg. × 3 days,73%
same,Percent Inhibition or Prolongation of Survival Time,[3]; 0.6 mg./kg. × 3 days,54%
same,Percent Inhibition or Prolongation of Survival Time,[3]; 0.03-0.09 mg./kg. × 9 days,8-72%
same,Percent Inhibition or Prolongation of Survival Time,[3]; 0.06-0.135 mg./kg. × 10 days,33-93%
same,Percent Inhibition or Prolongation of Survival Time (Toxic),[3]; 0.2-0.3 mg./kg. × 10 days,Toxic
same,Percent Inhibition or Prolongation of Survival Time (Toxic),P1534(J) leukemia; 0.18 mg./kg. × 10 days,Toxic
same,Percent Inhibition or Prolongation of Survival Time,P1534(J) leukemia; 0.08-0.18 mg./kg. × 10 days,9-46%
same,Percent Inhibition or Prolongation of Survival Time,"[1]; 0.25-0.6 mg./kg. × 3 days, IP",73-100%
same,pKa,pKa' in 66% DMF,9
"CC[C@H]1C[C@@H]2CN(CCc3c([nH]c4ccccc34)[C@@](C(=O)OC)(c3cc4c(cc3OC)N(C)[C@H]3[C@@](O)(C(=O)OC)[C@H](O)[C@]5(CC)C=CCN6CC[C@]43[C@@H]65)C2)C1 [4'-deoxy-4-desacetyl-leurosidine sulfate, 4'-deoxy-4-desacetylleurosidine sulfate]",Percent Inhibition or Prolongation of Survival Time,"B16 melanoma; 0.15 mg./kg. × 3 days, **delayed treatment, dosed 5th, 9th and 13th days",77%
same,Percent Inhibition or Prolongation of Survival Time,"B16 melanoma; 0.3 mg./kg. × 3 days, **delayed treatment, dosed 5th, 9th and 13th days",103%
same,Percent Inhibition or Prolongation of Survival Time (Toxic),"B16 melanoma; 0.6 mg./kg. × 3 days, **delayed treatment, dosed 5th, 9th and 13th days",Toxic
same,Percent Inhibition or Prolongation of Survival Time,[3]; 0.25 mg./kg. × 3 days,32%
same,Percent Inhibition or Prolongation of Survival Time,[3]; 0.4 mg./kg. × 3 days,37%
same,Percent Inhibition or Prolongation of Survival Time (Toxic),[3]; 0.6 mg./kg. × 3 days,Toxic
same,Percent Inhibition or Prolongation of Survival Time (Toxic),"[1]; 0.4 mg./kg. × 3 days, IP",Toxic
same,Percent Inhibition or Prolongation of Survival Time,"[1]; 0.6 mg./kg. × 3 days, IP",63%
same,Percent Inhibition or Prolongation of Survival Time (Toxic),"[1]; 0.9 mg./kg. × 3 days, IP",Toxic
CC[C@H]1C[C@@H]2CN(CCc3c([nH]c4ccccc34)[C@@](C(=O)OC)(c3cc4c(cc3OC)N(C)[C@H]3[C@@](O)(C(=O)OC)[C@H](O)[C@]5(CC)C=CCN6CC[C@]43[C@@H]65)C2)C1 [4'-deoxy-4-desacetylleurosidine],anti-tumor / oncolytic activity,transplanted tumors,oncolytic agent
CC[C@]1(O)C[C@@H]2CN(CCc3c([nH]c4ccccc34)[C@@](C(=O)OC)(c3cc4c(cc3OC)N(C)[C@@H]3[C@]45CCN4CC=C[C@@](CC)(C[C@]3(O)C(=O)OC)[C@H]45)C2)C1 [4-desacetoxy vinblastine],activity in the treatment of experimental malignancies in animals,[4],active
CCC1(O)CN2CCc3c([nH]c4ccccc34)C(C(=O)OC)(c3cc4c(cc3OC)N(C)C3C(O)(C(=O)OC)CC5(CC)C=CCN6CCC43C65)CC(C2)C1O (stereo not drawn) [4-desacetoxy-3'-hydroxyvinblastine],activity in the treatment of experimental malignancies in animals,[4],active
"CC[C@@H]1C[C@@H]2CN(CCc3c([nH]c4ccccc34)[C@@](C(=O)OC)(c3cc4c(cc3OC)N(C)[C@H]3[C@@](O)(C(=O)OC)[C@H](OC(C)=O)[C@]5(CC)C=CCN6CC[C@]43[C@@H]65)C2)C1 [deoxy VLB ""A""]",activity in the treatment of experimental malignancies in animals,[4],active
same,oncolytic activity in experimental tumors in mice,experimental tumors,lack reproducible activity
"CC[C@H]1C[C@@H]2CN(CCc3c([nH]c4ccccc34)[C@@](C(=O)OC)(c3cc4c(cc3OC)N(C)[C@H]3[C@@](O)(C(=O)OC)[C@H](OC(C)=O)[C@]5(CC)C=CCN6CC[C@]43[C@@H]65)C2)C1 [deoxy VLB ""B""]",activity in the treatment of experimental malignancies in animals,[4],active
same,oncolytic activity in experimental tumors in mice,experimental tumors,lack reproducible activity
CCC1(O)CN2CCc3c([nH]c4ccccc34)C(C(=O)OC)(c3cc4c(cc3OC)N(C)C3C(O)(C(=O)OC)C(OC(C)=O)C5(CC)C=CCN6CCC43C65)CC(O)(C2)C1 (stereo not drawn) [leurocolombine],activity in the treatment of experimental malignancies in animals,[4],active
CC[C@]1(O)C[C@@H]2CN(CCc3c([nH]c4ccccc34)[C@@](C(=O)OC)(c3cc4c(cc3OC)N(C=O)[C@H]3[C@@](O)(C(=O)OC)[C@H](OC(C)=O)[C@]5(CC)C=CCN6CC[C@]43[C@@H]65)C2)C1 [leurocristine],activity in the treatment of experimental malignancies in animals,[4],active
"CCC12CN3CCc4c([nH]c5ccccc45)[C@@](C(=O)OC)(c4cc5c(cc4OC)N(C=O)[C@H]4[C@@](O)(C(=O)OC)[C@H](OC(C)=O)[C@]6(CC)C=CCN7CC[C@]54[C@@H]76)C[C@@H](C3)C1O2 (stereo partly drawn) [leuroformine, N-formylleurosine]",activity in the treatment of experimental malignancies in animals,[4],active
CC[C@@]1(O)C[C@@H]2CN(CCc3c([nH]c4ccccc34)[C@@](C(=O)OC)(c3cc4c(cc3OC)N(C)[C@H]3[C@@](O)(C(=O)OC)[C@H](OC(C)=O)[C@]5(CC)C=CCN6CC[C@]43[C@@H]65)C2)C1 [leurosidine],activity in the treatment of experimental malignancies in animals,[4],active
CCC12CN3CCc4c([nH]c5ccccc45)[C@@](C(=O)OC)(c4cc5c(cc4OC)N(C)[C@H]4[C@@](O)(C(=O)OC)[C@H](OC(C)=O)[C@]6(CC)C=CCN7CC[C@]54[C@@H]76)C[C@@H](C3)C1O2 (stereo partly drawn) [leurosine],activity in the treatment of experimental malignancies in animals,[4],active
same,oncolytic activity in experimental tumors in mice,experimental tumors,demonstrated oncolytic activity
same,clinical response,[5],limited
CCC1(O)CN2CCc3c([nH]c4ccccc34)C(C(=O)OC)(c3cc4c(cc3OC)N(C)C3C(O)(C(=O)OC)C(OC(C)=O)C5(CC)C=CCN6CCC43C65)CC(C2)C1O (stereo not drawn) [vincadioline],activity in the treatment of experimental malignancies in animals,[4],active
CC[C@]1(O)C[C@@H]2CN(CCc3c([nH]c4ccccc34)[C@@](C(=O)OC)(c3cc4c(cc3OC)N(C)[C@H]3[C@@](O)(C(=O)OC)[C@H](OC(C)=O)[C@]5(CC)C=CCN6CC[C@]43[C@@H]65)C2)C1 [vincaleukoblastine],activity in the treatment of experimental malignancies in animals,[4],active
